Patent US20200239530A1, “COMPOUNDS AND METHODS OF MODULATING PROTEIN DEGRADATION” (Vividion Therapeutics, Inc., priority 2017, published 2020)

What was measured:
[1] = target: T1, BACH2 Transcription regulator protein BACH2 (Homo sapiens, UniProt Q9BYV9); assay: Cysteine liganding, probe competition; assay type: binding
T1 construct: Cells were resuspended in cold PBS on ice and sonicated with a probe sonicator to achieve lysis; endogenous in cells
Method in brief: (§1)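 Lysates from probe-sonicated cells in PBS (5 mg/ml proteome) were exposed to compound for 1 hr at 25° C, then labelled with desthiobiotin iodoacetamide probe (10 mM stock) for 1 hr at 25° C. Probe-tagged peptides were streptavidin-enriched after trypsin digestion.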

[2] = target: T2, VPS18 Vacuolar protein sorting-associated protein 18 homolog (Homo sapiens, UniProt Q9P253); assay: Cysteine liganding, probe competition; assay type: binding
T2 construct: Cells were resuspended in cold PBS on ice and sonicated with a probe sonicator to achieve lysis; endogenous in cells
T2 sequence (Q9P253 1-973): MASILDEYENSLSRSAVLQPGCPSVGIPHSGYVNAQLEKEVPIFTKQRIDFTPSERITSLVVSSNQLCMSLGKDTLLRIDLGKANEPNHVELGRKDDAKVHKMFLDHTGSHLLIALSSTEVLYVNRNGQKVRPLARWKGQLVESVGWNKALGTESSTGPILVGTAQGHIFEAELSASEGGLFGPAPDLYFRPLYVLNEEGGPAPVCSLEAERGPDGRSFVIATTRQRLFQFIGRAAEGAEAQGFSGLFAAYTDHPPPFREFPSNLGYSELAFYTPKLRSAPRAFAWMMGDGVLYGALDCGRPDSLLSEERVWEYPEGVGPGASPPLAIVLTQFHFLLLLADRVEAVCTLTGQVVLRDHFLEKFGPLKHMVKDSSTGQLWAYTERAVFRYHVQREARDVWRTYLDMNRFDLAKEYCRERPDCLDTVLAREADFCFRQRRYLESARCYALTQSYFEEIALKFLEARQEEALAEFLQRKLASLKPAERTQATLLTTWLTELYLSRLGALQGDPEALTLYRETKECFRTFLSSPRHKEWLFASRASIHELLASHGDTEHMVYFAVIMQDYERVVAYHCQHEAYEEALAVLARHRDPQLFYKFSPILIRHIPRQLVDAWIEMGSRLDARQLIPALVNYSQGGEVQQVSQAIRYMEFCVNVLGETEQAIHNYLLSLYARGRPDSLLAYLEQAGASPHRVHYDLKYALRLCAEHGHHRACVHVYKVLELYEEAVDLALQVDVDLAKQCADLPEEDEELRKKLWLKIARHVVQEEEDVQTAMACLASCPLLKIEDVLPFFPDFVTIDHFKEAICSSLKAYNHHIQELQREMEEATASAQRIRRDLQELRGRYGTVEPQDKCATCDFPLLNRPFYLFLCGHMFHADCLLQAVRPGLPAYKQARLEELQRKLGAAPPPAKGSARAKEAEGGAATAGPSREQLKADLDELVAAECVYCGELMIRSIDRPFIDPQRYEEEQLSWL
Method in brief: as §1

T1 sequence (Q9BYV9 whole entry): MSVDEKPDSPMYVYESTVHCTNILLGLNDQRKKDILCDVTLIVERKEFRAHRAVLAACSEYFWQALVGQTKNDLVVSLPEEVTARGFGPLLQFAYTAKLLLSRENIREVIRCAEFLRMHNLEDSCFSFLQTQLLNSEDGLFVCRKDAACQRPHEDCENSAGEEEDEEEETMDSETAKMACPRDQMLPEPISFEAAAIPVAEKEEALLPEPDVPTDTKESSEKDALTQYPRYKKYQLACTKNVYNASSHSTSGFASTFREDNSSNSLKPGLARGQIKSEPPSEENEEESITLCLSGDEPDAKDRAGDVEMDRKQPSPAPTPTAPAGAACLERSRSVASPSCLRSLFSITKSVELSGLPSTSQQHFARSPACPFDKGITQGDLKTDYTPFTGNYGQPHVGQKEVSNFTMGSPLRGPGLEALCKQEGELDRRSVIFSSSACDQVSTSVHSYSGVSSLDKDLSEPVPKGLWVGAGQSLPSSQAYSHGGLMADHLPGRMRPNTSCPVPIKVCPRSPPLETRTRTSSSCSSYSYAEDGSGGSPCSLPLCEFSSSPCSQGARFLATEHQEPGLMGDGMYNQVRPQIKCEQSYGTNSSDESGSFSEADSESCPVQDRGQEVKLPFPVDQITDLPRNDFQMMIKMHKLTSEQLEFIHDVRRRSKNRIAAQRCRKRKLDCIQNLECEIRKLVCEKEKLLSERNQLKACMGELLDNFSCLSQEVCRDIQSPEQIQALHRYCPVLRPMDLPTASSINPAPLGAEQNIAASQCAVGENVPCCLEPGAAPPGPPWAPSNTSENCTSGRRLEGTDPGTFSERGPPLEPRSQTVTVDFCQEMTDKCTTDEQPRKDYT

Structure (SMILES)	Liganded ([1]; BACH2 Res# 370, uniprot Q9BYV9)	Liganded ([2]; VPS18 Res# 806, uniprot Q9P253)	100 Max ([1]; uniprot Q9BYV9)	100 ave ([1]; uniprot Q9BYV9)	500 ave ([1]; uniprot Q9BYV9)	500 Max ([1]; uniprot Q9BYV9, unit assumed) [%]	100 Max ([2]; uniprot Q9P253)	100 ave ([2]; uniprot Q9P253)	500 Max ([2]; uniprot Q9P253)	500 ave ([2]; uniprot Q9P253)
COc1ccc2c(c1)CCCN2C(=O)CCl [KB02]	YES	YES	–	–	–	–	–	–	–	–
O=C(CCl)Nc1cc(C(F)(F)F)cc(C(F)(F)F)c1 [KBO3]	–	–	25.4	17.2	62.8	62.8	19.6	16.2	47.0	47.0
